The compounds below were run against ATX (human His-tagged) (Homo sapiens (Human), UniProt Q13822) (assay: Human ATX enzyme inhibition assay (fluorescence quenching, MR121 substrate)). Settings: 30 nM ATX, 1 μM MR121 substrate, 30° C.
Format: biochemical
From the text: Human ATX Enzyme Inhibition Assay
Assay working solutions were made as follows:
Compound `O=C(NC1CC2(C1)CC(C(=O)Nc1ccc3[nH]nnc3c1)C2)OCc1cc(Cl)cc(Cl)c1` (stereo not shown) [Example 12.29, 3,5-dichlorobenzyl 6-(1H-benzo[d][1,2,3]triazol-5-ylcarbamoyl)spiro[3.3]heptan-2-ylcarbamate] has an IC50 of 68.5 nM.
For `O=C(CCc1ccc(OC(F)(F)F)cc1)N1CCC2(CC1)CN(C(=O)C1CCc3[nH]nnc3C1)C2` (stereo not shown) [Example 1.28, 1-(2-(4,5,6,7-tetrahydro-1H-benzo[d][1,2,3]triazole-5-carbonyl)-2,7-diazaspiro[3.5]nonan-7-yl)-3-(4-(trifluoromethoxy)phenyl)propan-1-one], the IC50 was 110 nM.
For `CS(=O)(=O)c1cc(Cl)cc(COC(=O)N2CCC3(CC2)CN(S(=O)(=O)c2ccc4[nH]c(=O)oc4c2)C3)c1` [Example 12.31, 3-chloro-5-(methylsulfonyl)benzyl 2-(2-oxo-2,3-dihydrobenzo[d]oxazol-6-ylsulfonyl)-2,7-diazaspiro[3.5]nonane-7-carboxylate], the IC50 was 22 nM.
`O=C(OCc1ccc(OCC(F)(F)F)cc1F)N1CCC2(CC1)CN(C(=O)C1CCc3nn[nH]c3C1)C2` (stereo not shown) [Example 12.38, 2-fluoro-4-(2,2,2-trifluoroethoxy)benzyl 2-(4,5,6,7-tetrahydro-1H-benzo[d][1,2,3]triazole-6-carbonyl)-2,7-diazaspiro[3.5]nonane-7-carboxylate] showed an IC50 of 2.5 nM.
With `O=C(OCc1ccc(C(F)(F)F)cc1F)N1CCC2(CC1)CN(C(=O)C1CCc3[nH]nnc3C1)C2` (stereo not shown) [Example 12.36, [2-fluoro-4-(trifluoromethyl)phenyl]methyl 2-(4,5,6,7-tetrahydro-1H-benzotriazole-5-carbonyl)-2,7-diazaspiro[3.5]nonane-7-carboxylate] the IC50 was 1 nM.
In the case of `O=C(CCc1cc(Cl)cc(Cl)c1)N1CCC2(CC1)CN(C(=O)c1ccc3[nH]c(=O)oc3c1)C2` [Example 5.1, 6-(7-(3-(3,5-dichlorophenyl)propanoyl)-2,7-diazaspiro[3.5]nonane-2-carbonyl)benzo[d]oxazol-2(3H)-one], the IC50 is reported as 61 nM.
`O=C(c1ccc2[nH]nnc2c1)N1CCC2(CCN(C(=O)c3cc4cc(Cl)ccc4o3)C2)C1` (stereo not shown) [Example 6.7, (7-(1H-benzo[d][1,2,3]triazole-5-carbonyl)-2,7-diazaspiro[4.4]nonan-2-yl)(5-chlorobenzofuran-2-yl)methanone] gave an IC50 of 3930 nM.
`O=C(OCc1ccc(Cl)cc1Cl)N1CCC2(CC1)CN(C(=O)c1ccc3[nH]nnc3c1)C2` [Example 12.04, 2,4-dichlorobenzyl 2-(1H-benzo[d][1,2,3]triazole-5-carbonyl)-2,7-diazaspiro[3.5]nonane-7-carboxylate] gave an IC50 of 17 nM.
For `O=C(OCc1ccc(OC(F)(F)F)cc1)N1CCC2(CC1)CN(C(=O)C1CCc3[nH]nnc3C1)C2` (stereo not shown) [Example 12.43, 4-(trifluoromethoxy)benzyl 2-(4,5,6,7-tetrahydro-1H-benzo[d][1,2,3]triazole-5-carbonyl)-2,7-diazaspiro[3.5]nonane-7-carboxylate], the IC50 was 1 nM.
`O=C(OCc1cc(Cl)cc(Cl)c1)N1CCC2(CCN(C(=O)c3ccc4[nH]nnc4c3)C2)C1` (stereo not shown) [Example 12.16, 3,5-dichlorobenzyl 7-(1H-benzo[d][1,2,3]triazole-5-carbonyl)-2,7-diazaspiro[4.4]nonane-2-carboxylate] gave an IC50 of 457 nM.
Work on `O=C(c1ccc2[nH]nnc2c1)N1CCC2(CCN(C(=O)c3cc4cc(Cl)ccc4[nH]3)C2)C1` (stereo not shown) [Example 6.6, (7-(1H-benzo[d][1,2,3]triazole-5-carbonyl)-2,7-diazaspiro[4.4]nonan-2-yl)(5-chloro-1H-indol-2-yl)methanone] yielded an IC50 of 605 nM.
`O=C(NC1CC2(C1)CN(C(=O)OCc1cc(Cl)cc(Cl)c1)C2)c1ccc2[nH]c(=O)oc2c1` [Example 5.2, 6-[(2-oxo-2,3-dihydro-benzooxazole-6-carbonyl)-amino]-2-aza-spiro[3.3]heptane-2-carboxylic acid 3,5-dichloro-benzyl ester] showed an IC50 of 26.5 nM.
`CS(=O)(=O)c1cc(COC(=O)N2CCC3(CC2)CN(S(=O)(=O)c2ccc4[nH]c(=O)oc4c2)C3)cc(C(F)(F)F)c1` [Example 12.45, 3-(methylsulfonyl)-5-(trifluoromethyl)benzyl 2-(2-oxo-2,3-dihydrobenzo[d]oxazol-6-ylsulfonyl)-2,7-diazaspiro[3.5]nonane-7-carboxylate] was tested, and the IC50 was 39 nM.
Work on `O=C(OCc1cccc(Cl)c1)N1CCC2(CC1)CN(C(=O)c1ccc3[nH]nnc3c1)C2` [Example 1.03, 3-chlorobenzyl 2-(1H-benzo[d][1,2,3]triazole-5-carbonyl)-2,7-diazaspiro[3.5]nonane-7-carboxylate] yielded an IC50 of 201 nM.
In the case of `O=C(OCc1cc(Cl)nc(Cl)c1)N1CCC2(CC1)CN(C(=O)c1ccc3[nH]nnc3c1)C2` [Example 12.01, (2,6-dichloropyridin-4-yl)methyl 2-(1H-benzo[d][1,2,3]triazole-5-carbonyl)-2,7-diazaspiro[3.5]nonane-7-carboxylate], the IC50 is reported as 150 nM.
For `O=C(NC1CC2(C1)CN(C(=O)c1ccc3[nH]nnc3c1)C2)OCc1ccccc1` [Example 1.10, [2-(1H-benzotriazole-5-carbonyl)-2-aza-spiro[3.3]hept-6-yl]-carbamic acid benzyl ester], the IC50 was 3700 nM.
`O=C(c1ccc2[nH]nnc2c1)N1CC2(CCN(C(=O)[C@@H]3C[C@H]3c3cc(F)cc(F)c3)CC2)C1` (relative stereo) [Example 6.5, (2-(1H-benzo[d][1,2,3]triazole-5-carbonyl)-2,7-diazaspiro[3.5]nonan-7-yl)(trans-2-(3,5-difluorophenyl)cyclopropyl)methanone] was tested, and the IC50 was 3220 nM.
Compound `O=C(NCc1cc(Cl)cc(Cl)c1)N1CCC2(CC1)CN(C(=O)c1ccc3[nH]nnc3c1)C2` [Example 9, 2-(1H-Benzo[d][1,2,3]triazole-5-carbonyl)-N-(3,5-dichlorobenzyl)-2,7-diazaspiro[3.5]nonane-7-carboxamide] has an IC50 of 1060 nM.
Compound `O=C(c1ccc2[nH]nnc2c1)N1CC2(CCN(c3nnc(-c4ccc(Cl)cc4)s3)CC2)C1` [Example 8, (1H-Benzo[d][1,2,3]triazol-5-yl)(7-(5-(4-chlorophenyl)-1,3,4-thiadiazol-2-yl)-2,7-diazaspiro[3.5]nonan-2-yl)methanone] has an IC50 of 178 nM.
